According to patent US10080748B2, “Use of flap inhibitors to reduce neuroinflammation mediated injury in the central nervous system” (Bioscience Pharma Partners, LLC, priority 2014, dated 2018):

Assays:
[1] = test system: rats subjected to FPI (TBI model); assay: Gd-enhanced T1-weighted MRI, BBB disruption 72 hours after TBI (rat FPI); format: in vivo
Experimental: Craniotomy and lateral fluid percussion injury (FPI) were performed using a previously validated and published procedure. Farias S, et al. J. Neurotraum, 26, 1977-1986, 2009; Frey L. C. et al. J. Neurosci. Methods 177, 267-272, 2009. Throughout the specification animals subjected to this protocol are referred to as having a TBI since this treatment protocol is a TBI model. Briefly, rats were anesthetized with 3-5% isoflurane, isosol, VEDCO Inc., St. Joseph, Mo., via nose cone and mounted in a stereotaxic head frame. A 3 millimeter (mm) craniotomy was created and centered at 3 mm caudal to bregma and 3.5 mm left of the sagittal suture, keeping the exposed dura intact. One steel support screw was embedded in the skull on the contralateral side. A Luer-Lock hub with an inside diameter of 3.5 mm was centered over the craniotomy and bonded to the skull with cyanoacrylate adhesive and capped. Dental acrylic, Snap, Parka, Inc., Edgewood, N.J., was poured around the huh and screw. After the acrylic hardened antibiotic ointment was applied around the cap and the animals were returned to their cages. The next day, approximately 15-20 hours later, animals were anesthetized with isoflurane in an induction chamber, immediately connected to the FPI apparatus, and received a 20 millisecond (ms) pulse of pressurized sterile saline at 2.7 atmospheres (atm) of pressure to simulate a moderate severity impact on the intact dural surface through the craniotomy before awakening from anesthesia. […] All animals received a subcutaneous injection of the analgesic, buprenorphine, 0.05 milligram/kilogram (mg/kg) Buprenex, prior to craniotomy, and subsequent injections every 12 hours for two days. Moistened food pellets were provided after injury, and all animals were monitored daily for well-being and weight changes. […]
The effect of leukotrienes on TBI-related BBB disruption was assessed using Gd-enhanced T1-weighted MRI 72 hours after TBI in rats. […]

[2] = test system: rats subjected to FPI (TBI model); assay: Evans Blue extravasation, BBB permeability in hippocampus (rat FPI); format: in vivo; details: 15 minutes after TBI; slices five hours post-injury
Experimental: Craniotomy and lateral fluid percussion injury (FPI) were performed using a previously validated and published procedure. Farias S, et al. J. Neurotraum, 26, 1977-1986, 2009; Frey L. C. et al. J. Neurosci. Methods 177, 267-272, 2009. Throughout the specification animals subjected to this protocol are referred to as having a TBI since this treatment protocol is a TBI model. Briefly, rats were anesthetized with 3-5% isoflurane, isosol, VEDCO Inc., St. Joseph, Mo., via nose cone and mounted in a stereotaxic head frame. A 3 millimeter (mm) craniotomy was created and centered at 3 mm caudal to bregma and 3.5 mm left of the sagittal suture, keeping the exposed dura intact. […] Moistened food pellets were provided after injury, and all animals were monitored daily for well-being and weight changes. […]
One hour prior to FPI, rats received a 5 ml intraperitoneal (IP) injection of Evans Blue (EB) solution, 2% w/v in saline. […] Images from each slice were stitched together using Fiji/ImageJ (NIH), and EB-positive cells in the hippocampal cell layers were quantified using the cell counter tool.
The inventors utilized Evans Blue (EB) fluorescence to assess BBB permeability in the rat FPI model. […] Fluorescence microscopy was used to image brain slices harvested five hours post-injury, taking advantage of EB's intrinsic fluorescent properties, excitation at 620 nm and emission at 680 nm. […]

In the case of CC(C)c1ccc2c(c1)c(SC(C)(C)C)c(CC(C)(C)C(=O)O)n2Cc1ccc(Cl)cc1 [MK-886, 1-[(4-Chlorophenyl)methyl]-3-[(1,1-dimethylethyl)thio]-α,α-dimethyl-5-(1-methylethyl)-1H-Indole-2-propanoic acid], the Gd extravasation ([1]; 15 min post-injury) was “no effect”, the Gd extravasation ([1]; 30 min pre-injury) was “no effect” and the Gd extravasation ([1]; 60 min post-injury) was “no effect”. The “number of EB-positive cells in the CA1 region” value [2] was 69.25+/−36.82.
